Test results as given in PMC8776337, “Peptides Derived from Vascular Endothelial Growth Factor B Show Potent Binding to Neuropilin‐1” (Chembiochem, 2021).
Where two headings read alike, the source gives them in different places. Positions of bridges follow the written chain, without caps; N, C: chain ends. Residues, ends and D or L forms follow the SMILES beside them. *: point of attachment. Hept6ynoyl = C#CCCCCC(=O)*

Tests used:
NRP1‐b1 = biological target: T1, NRP1‐b1 (Homo sapiens, UniProt O14786); test: SPR binding of peptides to immobilised NRP1-b1; conditions: for Receptor occupancy: immobilised NRP1-b1
T1 construct: the immobilized b1 domain of NRP1 (NRP1‐b1); poly-histidine (TEV-cleavable) (cleaved yes); made in house; host or cells: E. coli Rosetta (DE3)
T1 sequence (O14786 275-424 limits assumed): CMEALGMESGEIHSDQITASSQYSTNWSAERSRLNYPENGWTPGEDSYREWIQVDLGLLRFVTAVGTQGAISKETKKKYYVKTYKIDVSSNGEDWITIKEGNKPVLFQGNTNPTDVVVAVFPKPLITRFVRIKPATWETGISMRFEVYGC
Text: We then designed four additional peptides with added lipid chains (Figures 3 and 4). We investigated the effect of lipidation on the N‐terminus (MGC0171 and MGC0174) and on the side chain of a lysine in close proximity to the C‐terminus (MGC0172 and MGC0173) as shown (Figure 5). For the SPR analysis of the lipidated peptides we fitted data to a two‐state reaction model to account for the nonspecific binding of the palmitoyl side chains. Since the model assumes two binding events it provides two association (k a) and dissociation (k d) rates, and the overall equilibrium dissociation constant is calculated using the equation: KD=KD1(1+KD2), in which KD1 and KD2 are obtained as […]. The inverse of the dissociation rate corresponds to the residence time. […] The lipidated peptides were also tested for inhibition of VEGF‐A165 binding to NRP1 in a cell‐based assay (Figure 8).
Surface plasmon resonance: SPR measurements were performed using either Biacore T200 or Biacore 4000 at a constant temperature of 25 °C. All sensor chips, stock buffers, and immobilisation reagents were purchased from GE Healthcare/Cytvia and were prepared according to the manufacturer's instructions.
Chip preparation: PBS containing 0.05 % surfactant P20 was used as the running buffer during immobilisation. Proteins were immobilised onto a CM5 chip using random amine coupling following a standard procedure using the conditions specified in Table 2. A flow cell upstream of the treated flow cell was used as a reference which allowed removal of non‐specific binding to the chip.
Kinetic measurements of peptides: Peptides were injected over immobilized NRP1‐b1 for 60 s, followed by 120 or 180 s dissociation. The surface was regenerated with 1 M NaCl between injections. The SPR response curves were fit to a binding model to obtain association (ka ) and dissociation (kd ) rates which were then converted into equilibrium dissociation constant (KD ) and residence time. For a 1 : 1 binding model […] and for a two‐state binding model KD=K1(1+K2). Residence time was calculated as 1/kd .

[1] = system: VEGF‐A165 stimulated phosphorylation in HUVECs; test: Western blot of VEGF-A-stimulated phosphorylation of downstream signalling proteins in HUVECs; assay type: cell-based, human; conditions: HUVECs pre-treated 30 min with 10 μM peptide, then VEGF-A165 10 min
Procedure: Figure 7 Effect of VEGF ‐ derived peptides on VEGF‐A ‐stimulated phosphorylation of downstream signalling proteins as probed by Western blot. A) VEGF‐B167 derived peptide MGC0123. B) VEGF‐A165 derived peptide MGC0124. HUVECs were pre‐treated for 30 min with peptide (10 μM) then stimulated for 10 minutes with VEGF‐A165.
Cell culture: Human umbilical vein endothelial cells (HUVECs) were cultured in t75 cm2 flasks for a maximum of 2 passages in EGM Endothelial Cell Growth Medium (#CC‐3124, Lonza, USA) supplemented with 10 % FBS. Cells were split into 6‐well‐plates and allowed to grow to ∼80 % confluence. Cells were starved by incubating in 0.5 % FBS serum EGM overnight and serum‐free EGM for 1 h directly before stimulation. Human DU145 cells for the cell‐based assay (see below) were cultured in t75 cm2 flasks in DMEM supplemented with 10 % FBS.
Immunoblotting: Cells were pre‐treated with the indicated peptide (10 μM) for 30 minutes prior to treatment with VEGF‐A165 at the indicated concentrations for 10 minutes. Cells were lysed in a solution containing Tris⋅HCl (pH 7.5, 50 mm), Triton X‐100 (1 %), NaCl (150 mm), EDTA (5 mm), complete protease inhibitor (Roche) and phosphatase inhibitors I and II (Sigma) and analysed by SDS‐PAGE with 4–12 % Bis⋅Tris gels (Nupage, Invitrogen), followed by electrotransfer onto Invitrolon PVDF membranes (Invitrogen). Membranes were blocked with non‐fat dry milk (5 % w/v) and Tween‐20 (0.1 % v/v) in tris‐buffered saline (TBS‐T), for 1 h at room temperature, before being probed with the primary antibody by overnight incubation at 4 degrees C, followed by incubation for 1 h at room temperature with a horseradish‐ peroxidase‐linked secondary antibody (Santa Cruz) and detection with the aid of ECL plus reagents (GE Healthcare, Little Chalfont, UK), by the manufacturer's protocol.

[2] = SPR, immobilised NRP1-b1, 25 °C, 1:1 model, or first residence time of the two-state model, read-out: Residence time (1/kd) (converted)

Structure (SMILES) | Receptor occupancy (NRP1‐b1; SPR) | residence time (NRP1‐b1; [2]) | VEGF‐A165 dependent ERK phosphorylation [1] | VEGF‐A165 dependent VEGFR2 phosphorylation [1] | VEGF‐A mediated P130Cas phosphorylation [1] | VEGF‐A mediated Paxillin phosphorylation [1] | residence time (NRP1‐b1; read-out: Residence time (1/kd))
C#CCCCCC(=O)N[C@@H](CO)C(=O)N[C@H]1CSSC[C@@H]2NC(=O)[C@H]([C@@H](C)O)NC(=O)[C@H](CCCNC(=N)N)NC(=O)[C@H](CCC(=O)O)NC(=O)[C@H](CC(N)=O)NC(=O)[C@H](CC(C)C)NC(=O)[C@H](CCC(=O)O)NC(=O)[C@H](CC(C)C)NC(=O)[C@H](CCC(N)=O)NC(=O)[C@H](CCCNC(=N)N)NC(=O)[C@H](C)NC(=O)[C@H](CCCCN)NC(=O)[C@H](CSSC[C@@H](C(=O)N[C@@H](CC(=O)O)C(=O)N[C@@H](CCCCN)C(=O)N3CCC[C@H]3C(=O)N[C@@H](CCCNC(=N)N)C(=O)N[C@@H](CCCNC(=N)N)C(=O)O)NC(=O)[C@H](CCCNC(=N)N)NC2=O)NC(=O)[C@H](CCCNC(=N)N)NC(=O)[C@H](CO)NC(=O)[C@H](CC(=O)O)NC(=O)[C@H]([C@@H](C)O)NC(=O)[C@H](CC(N)=O)NC(=O)[C@H](CCCCN)NC1=O [MGC0124] (Hept6ynoyl-SCKNTDSRCKARQLELNERTCRCDKPRR-OH; disulfide 2-21, 9-23) | 84±1% | 0.0117 min | little effect | strongly reducing | little effect | little effect | 
C#CCCCCC(=O)N[C@@H](CC(=O)O)C(=O)N[C@@H](CCCNC(=N)N)C(=O)N[C@@H](C)C(=O)N[C@@H](C)C(=O)N[C@H](C(=O)N1CCC[C@H]1C(=O)N[C@@H](Cc1c[nH]cn1)C(=O)N[C@@H](Cc1c[nH]cn1)C(=O)N[C@@H](CCCNC(=N)N)C(=O)N1CCC[C@H]1C(=O)N[C@@H](CCC(N)=O)C(=O)N1CCC[C@H]1C(=O)N[C@@H](CCCNC(=N)N)C(=O)O)[C@@H](C)O [MGC0122] (Hept6ynoyl-DRAATPHHRPQPR-OH) |  | 0.0362 min |  |  |  |  | 
C#CCCCCC(=O)N[C@@H](CCCNC(=N)N)C(=O)N[C@H]1CSSC[C@@H]2NC(=O)[C@H]([C@@H](C)O)NC(=O)[C@H](CC(=O)O)NC(=O)[C@@H]3CCCN3C(=O)[C@H](CC(N)=O)NC(=O)[C@H](CC(C)C)NC(=O)[C@H](CCC(=O)O)NC(=O)[C@H](CC(C)C)NC(=O)CNC(=O)[C@H](CCCNC(=N)N)NC(=O)CNC(=O)[C@H](CCC(N)=O)NC(=O)[C@H](CSSC[C@@H](C(=O)N[C@@H](CCCNC(=N)N)C(=O)N[C@@H](CCCCN)C(=O)N[C@@H](CC(C)C)C(=O)N[C@@H](CCCNC(=N)N)C(=O)N[C@@H](CCCNC(=N)N)C(=O)O)NC(=O)[C@H](CCCNC(=N)N)NC2=O)NC(=O)[C@H](CCCNC(=N)N)NC(=O)[C@H](CC(C)C)NC(=O)[C@H](Cc2ccccc2)NC(=O)[C@H](CO)NC(=O)[C@H](CCCNC(=N)N)NC(=O)[C@H](CCCNC(=N)N)NC(=O)[C@H](CCCNC(=N)N)NC1=O [MGC0123] (Hept6ynoyl-RCRRRSFLRCQGRGLELNPDTCRCRKLRR-OH; disulfide 2-22, 10-24) | 54±3% |  | dramatically inhibited | dramatically inhibited | also inhibited | also inhibited | 0.308 min
